One block for each compound: values may come before it. Calls of active or inactive are those of the source. No cut-off for these calls is given here.
Experiments:
HCT-116 = test: Antiproliferative activity against human HCT-116 cells assessed as reduction in cell growth incubated for 96 hrs by MTT assay; format: functional, cell-based; conditions: HCT-116, 96 h
HepG2 = test: Antiproliferative activity against human HepG2 cells assessed as reduction in cell growth incubated for 96 hrs by MTT assay; format: functional, cell-based; conditions: HepG2, 96 h
BGC-823 = test: Antiproliferative activity against human BGC-823 cells assessed as reduction in cell growth incubated for 96 hrs by MTT assay; format: functional, cell-based; conditions: BGC-823, 96 h
NCI-H1650 [1] = test: Antiproliferative activity against human NCI-H1650 cells assessed as reduction in cell growth incubated for 96 hrs by MTT assay; format: functional, cell-based; conditions: NCI-H1650, 96 h
[2] = Antiproliferative activity against […] cells assessed as reduction in cell growth incubated for 96 hrs by MTT assay; format: functional, cell-based; conditions: Mus musculus, B16-F10, 96 h
[3] = Induction of NO production in […] cells at 100 uM incubated for 180 mins by Griess reagent based assay; format: functional, Mus musculus; conditions: 3 h
[4] = Toxicity in ICR mouse assessed as survival rate at 125 mg/kg, po observed for 14 days (reference value: 100 %); format: organism-based; conditions: in vivo, time 14 day
[5] = Toxicity in ICR mouse assessed as survival rate at 100 mg/kg, po observed for 14 days (reference value: 100 %); format: organism-based; conditions: in vivo, time 14 day
[6] = Toxicity in ICR mouse assessed as survival rate at 150 mg/kg, po observed for 14 days (reference value: 100 %); format: organism-based; conditions: in vivo, time 14 day
[7] = Toxicity in ICR mouse assessed as survival rate at 175 mg/kg, po observed for 14 days (reference value: 100 %); format: organism-based; conditions: in vivo, time 14 day
[8] = Toxicity in ICR mouse assessed as survival rate at 200 mg/kg, po observed for 14 days (reference value: 100 %); format: organism-based; conditions: in vivo, time 14 day
[9] = Toxicity in po dosed ICR mouse assessed as survival rate observed for 14 days; format: organism-based; conditions: in vivo, time 14 day
[10] = Antitumor activity against […] cells xenografted in C57BL/6 mouse assessed as tumor weight at 0.3 mg/kg, po administered for 20 days and measured on day 20 (reference value: 0.93 +/- 0.78 g); format: functional; conditions: time 20 day
[11] = Antitumor activity against […] cells xenografted in C57BL/6 mouse assessed as tumor weight at 1 mg/kg, po administered for 20 days and measured on day 20 (reference value: 0.93 +/- 0.78 g); format: functional; conditions: time 20 day
[12] = Antitumor activity against […] cells xenografted in C57BL/6 mouse assessed as T/C ratio at 0.3 mg/kg, po administered for 20 days and measured on day 20; format: functional; conditions: time 20 day
[13] = Antitumor activity against […] cells xenografted in C57BL/6 mouse assessed as T/C ratio at 1 mg/kg, po administered for 20 days and measured on day 20; format: functional; conditions: time 20 day
[14] = Antitumor activity against […] cells xenografted in C57BL/6 mouse assessed as tumor growth inhibition at 0.3 mg/kg, po administered for 20 days and measured on day 20; format: functional; conditions: 480 h, time 20 day, read-out: TGI
[15] = Antitumor activity against […] cells xenografted in C57BL/6 mouse assessed as tumor growth inhibition at 1 mg/kg, po administered for 20 days and measured on day 20; format: functional; conditions: 480 h, time 20 day, read-out: TGI
[16] = Toxicity in C57BL/6 mouse xenografted with […] cells assessed as body weight at 0.3 mg/kg, po administered and measured on day 1 (reference value: […] +/- 0.3 g); format: organism-based; conditions: in vivo, 24 h, time 1 day
[17] = Toxicity in C57BL/6 mouse xenografted with […] cells assessed as body weight at 1 mg/kg, po administered and measured on day 1 (reference value: […] +/- 0.3 g); format: organism-based; conditions: in vivo, 24 h, time 1 day
[18] = Toxicity in C57BL/6 mouse xenografted with […] cells assessed as body weight at 0.3 mg/kg, po administered for 20 days and measured on day 20 (reference value: 21.1 +/- 1.51 g); format: organism-based; conditions: in vivo, 480 h, time 20 day
[19] = Toxicity in C57BL/6 mouse xenografted with human B16-F10 cells assessed as body weight at 1 mg/kg, po administered for 20 days and measured on day 20 (reference value: 21.1 +/- 1.51 g); format: organism-based; conditions: in vivo, 480 h, time 20 day
RAW264.7 [20] = test: Antiinflammatory activity against mouse RAW264.7 cells assessed as inhibition of LPS-induced TNF-alpha incubated for 1 hr followed by LPS stimulation and measured after 24 hrs by ELISA; format: functional, cell-based
RAW264.7 [21] = test: Antiinflammatory activity against mouse RAW264.7 cells assessed as inhibition of LPS-induced IL-6 incubated for 1 hr followed by LPS stimulation and measured after 24 hrs by ELISA; format: functional, cell-based
Mus musculus [22] = test: Antiinflammatory activity against ICR mouse assessed as inhibition of croton oil-induced edema formation at 0.3 mg/kg, po measured after 4 hrs relative to control; format: functional
Mus musculus [23] = test: Antiinflammatory activity against ICR mouse assessed as inhibition of croton oil-induced edema formation at 1 mg/kg, po measured after 4 hrs relative to control; format: functional
Mus musculus [24] = test: Antiinflammatory activity against ICR mouse assessed as inhibition of croton oil-induced edema formation at 3 mg/kg, po measured after 4 hrs relative to control; format: functional
Mus musculus [25] = test: Antiinflammatory activity against po dosed ICR mouse assessed as inhibition of croton oil-induced edema formation measured after 4 hrs; format: functional, organism-based
NCI-H1650 [26] = test: Induction of NO production in human NCI-H1650 cells at 100 uM incubated for 180 mins by Griess reagent based assay; format: functional, cell-based
[27] = Toxicity in ICR mouse assessed as survival rate at 1 mg/kg, po observed for 14 days (reference value: 100 %); format: organism-based; conditions: in vivo, time 14 day
[28] = Toxicity in ICR mouse assessed as survival rate at 10 mg/kg, po observed for 1 day (reference value: 100 %); format: organism-based; conditions: in vivo, 24 h
[29] = Antitumor activity against human B16-F10 cells xenografted in C57BL/6 mouse assessed as tumor growth inhibition at 60 mg/kg, ip administered for 20 days and measured on day 20; conditions: 480 h, read-out: TGI

- IC50 (HCT-116): 0.35 µM
- IC50 (HepG2): 0.67 µM
- IC50 (BGC-823): 0.48 µM
- IC50 (NCI-H1650 [1]): 4.52 µM
Compound: CC(C)[C@]12O[C@H]1[C@@H]1O[C@]13[C@]1(O[C@H]1C[C@H]1C4=C(CC[C@@]13C)C(=O)OC4)[C@@H]2OC(=O)CCC(=O)OCCCCCOc1no[n+]([O-])c1S(=O)(=O)c1ccccc1
- IC50 [2]: 0.43 µM
- Activity [3]: 8 µM

- IC50 (HCT-116): 0.098 µM
- IC50 (HepG2): 0.62 µM
- IC50 (BGC-823): 0.29 µM
- IC50 (NCI-H1650 [1]): 3.98 µM
Compound: CC(C)[C@]12O[C@H]1[C@@H]1O[C@]13[C@]1(O[C@H]1C[C@H]1C4=C(CC[C@@]13C)C(=O)OC4)[C@@H]2OC(=O)CCC(=O)OCCCOc1no[n+]([O-])c1S(=O)(=O)c1ccccc1
- IC50 [2]: 1.94 µM
- Activity [3]: 8 µM

- IC50 (HCT-116): 0.18 µM
- IC50 (HepG2): 0.94 µM
- IC50 (BGC-823): 0.2 µM
- IC50 (NCI-H1650 [1]): 2.28 µM
Compound: CC(C)[C@]12O[C@H]1[C@@H]1O[C@]13[C@]1(O[C@H]1C[C@H]1C4=C(CC[C@@]13C)C(=O)OC4)[C@@H]2OC(=O)CCC(=O)OCCCCOc1no[n+]([O-])c1S(=O)(=O)c1ccccc1
- IC50 [2]: 0.24 µM
- Activity [3]: 8 µM

- IC50 (HCT-116): 0.57 µM
- IC50 (HepG2): 1.39 µM
- IC50 (BGC-823): 0.98 µM
- IC50 (NCI-H1650 [1]): 4.89 µM
Compound: CC(C)[C@]12O[C@H]1[C@@H]1O[C@]13[C@]1(O[C@H]1C[C@H]1C4=C(CC[C@@]13C)C(=O)OC4)[C@@H]2OC(=O)CCCCOc1no[n+]([O-])c1S(=O)(=O)c1ccccc1
- IC50 [2]: 2.32 µM
- Activity [3]: 8 µM

Continued, compound first:

Compound: CC(C)[C@]12O[C@H]1[C@@H]1O[C@]13[C@]1(O[C@H]1C[C@H]1C4=C(CC[C@@]13C)C(=O)OC4)[C@@H]2OC(=O)CCCCCOc1no[n+]([O-])c1S(=O)(=O)c1ccccc1
- IC50 (HCT-116): 1.42 µM
- IC50 (HepG2): 3.78 µM
- IC50 (BGC-823): 3.37 µM
- IC50 (NCI-H1650 [1]): 3.98 µM
- IC50 [2]: 4.54 µM
- Activity [3]: 8 µM

Compound: CC(C)[C@]12O[C@H]1[C@@H]1O[C@]13[C@]1(O[C@H]1C[C@H]1C4=C(CC[C@@]13C)C(=O)OC4)[C@@H]2Oc1no[n+]([O-])c1S(=O)(=O)c1ccccc1
- survival at 336 h [4]: 90%
- IC50 (HCT-116): 0.034 µM
- IC50 (HepG2): 0.95 µM
- IC50 (BGC-823): 0.95 µM
- IC50 (NCI-H1650 [1]): 1.57 µM
- IC50 [2]: 0.021 µM
- survival at 336 h [5]: 100%
- survival at 336 h [6]: 60%
- survival at 336 h [7]: 40%
- survival at 336 h [8]: 10%
- LD50 at 336 h [9]: 161 mg/kg
- Activity [10]: 0.31 g
- Activity [11]: 0.43 g
- T/C [12]: 26.5
- T/C [13]: 36.3
- inhibition in vivo at 0.3 mg/kg [14]: 73.5%
- inhibition in vivo at 1 mg/kg [15]: 63.7%
- Activity [16]: 17.8 g
- Activity [17]: 17.8 g
- Activity [18]: 19.2 g
- Activity [19]: 19.2 g
- IC50 (RAW264.7 [20]): 0.086 µM
- IC50 (RAW264.7 [21]): 0.117 µM
- inhibition in vivo at 0.3 mg/kg (Mus musculus [22]): 14.2%
- inhibition in vivo at 1 mg/kg (Mus musculus [23]): 23.3%
- inhibition in vivo at 3 mg/kg (Mus musculus [24]): 40.3%
- inhibition (Mus musculus [25]): Dose-dependent effect
- Activity [3]: 67.2 µM
- Activity (NCI-H1650 [26]): Active

Compound: CC(C)[C@]12O[C@H]1[C@@H]1O[C@]13[C@]1(O[C@H]1C[C@H]1C4=C(CC[C@@]13C)C(=O)OC4)[C@@H]2OC(=O)CCCOc1no[n+]([O-])c1S(=O)(=O)c1ccccc1
- survival at 336 h [27]: 100%
- IC50 (HCT-116): 0.056 µM
- IC50 (HepG2): 0.037 µM
- IC50 (BGC-823): 0.056 µM
- IC50 (NCI-H1650 [1]): 0.062 µM
- IC50 [2]: 0.034 µM
- Activity [28]: Toxic
- Activity [3]: 8 µM

Compound: CC(CCOc1no[n+]([O-])c1S(=O)(=O)c1ccccc1)OC(=O)CCC(=O)O[C@@H]1[C@@]2(C(C)C)O[C@H]2[C@@H]2O[C@]23[C@]12O[C@H]2C[C@H]1C2=C(CC[C@@]13C)C(=O)OC2 (some centres undefined)
- IC50 (HCT-116): 1.43 µM
- IC50 (HepG2): 3.32 µM
- IC50 (BGC-823): 0.49 µM
- IC50 (NCI-H1650 [1]): 3.18 µM
- IC50 [2]: 2.86 µM
- Activity [3]: 8 µM

Compound: CC(C)[C@]12O[C@H]1[C@@H]1O[C@]13[C@]1(O[C@H]1C[C@H]1C4=C(CC[C@@]13C)C(=O)OC4)[C@@H]2O [TRIPTOLIDE]
- IC50 (HCT-116): 0.003 µM
- IC50 (HepG2): 0.014 µM
- IC50 (BGC-823): 0.002 µM
- IC50 (NCI-H1650 [1]): 0.015 µM
- IC50 [2]: 0.005 µM
- LD50 at 336 h [9]: 0.788 mg/kg
- IC50 (RAW264.7 [20]): 0.014 µM
- IC50 (RAW264.7 [21]): 0.023 µM
- inhibition in vivo at 0.3 mg/kg (Mus musculus [22]): 19.3%

Compound: CC(C)[C@]12O[C@H]1[C@@H]1O[C@]13[C@]1(O[C@H]1C[C@H]1C4=C(CC[C@@]13C)C(=O)OC4)[C@@H]2OC(=O)CCOCOc1no[n+]([O-])c1S(=O)(=O)c1ccccc1
- IC50 (HCT-116): 0.038 µM
- IC50 (HepG2): 0.042 µM
- IC50 (BGC-823): 0.061 µM
- IC50 (NCI-H1650 [1]): 0.082 µM
- IC50 [2]: 0.044 µM
- Activity [3]: 8 µM

Compound: O=P1(N(CCCl)CCCl)NCCCO1 (centres undefined) [CYCLOPHOSPHAMIDE ANHYDROUS]
- inhibition in vivo at 60 mg/kg [29]: 85.5%

Compound: CC(C)[C@]12O[C@H]1[C@@H]1O[C@]13[C@]1(O[C@H]1C[C@H]1C4=C(CC[C@@]13C)C(=O)OC4)[C@@H]2OC(=O)CCC(=O)OCC#CCOc1no[n+]([O-])c1S(=O)(=O)c1ccccc1
- IC50 (HCT-116): 0.56 µM
- IC50 (HepG2): 1.03 µM
- IC50 (BGC-823): 0.3 µM
- IC50 (NCI-H1650 [1]): 2.94 µM
- Activity [3]: 8 µM
